For orientation: GI50 means the concentration that inhibits growth by half. As usually defined, the TGI is the concentration at which net growth stops.

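Five concentrations, 48 hours, 96-well plates. The concentration for 50% growth inhibition is given as GI50. Definition used: TGI = concentration required for complete inhibition of growth.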

Among the test systems are SW-620 colon; MALME-3M melanoma; MOLT-4 leukemia; EKVX NSCLC; KM12 colon; BT-549 breast; COLO 205 colon; UACC-62 melanoma; HCT-15 colon; HOP-92 NSCLC.
Common to all, as to experiment: DTP human tumour cell line panel, 48 h

With `NC(=S)N/N=C/c1ccc(OC(=O)COc2ccc(Cl)cc2)cn1`, the GI50 was 3.29 µM in the assay on SW-620 colon; 12.2 µM in the assay on MALME-3M melanoma; 2.26 µM in the assay with MOLT-4 leukemia; 30.9 µM in the assay with EKVX NSCLC; 3.18 µM in the assay with KM12 colon; 4.74 µM in the assay on BT-549 breast. Further, the GI50 in the assay with COLO 205 colon was 31.8 µM; in the assay on UACC-62 melanoma, 4.17 µM; in the assay on HCT-15 colon, 22.9 µM. In addition, the TGI in the assay with SW-620 colon, in the assay on MALME-3M melanoma, in the assay on MOLT-4 leukemia, with EKVX NSCLC, with KM12 colon and with BT-549 breast was more than 100 µM in each case. For the same compound, the total growth inhibition concentration (TGI) in the assay on COLO 205 colon is more than 100 µM; with UACC-62 melanoma, 60 µM; with HCT-15 colon it was more than 100 µM.

For the compound `Fc1cc(F)c(COc2cc(Cn3cnc4c(Cl)nc(Cl)nc43)ccc2C23CC4CC(CC(C4)C2)C3)cc1F`, the GI50 in the assay on SW-620 colon is 12.3 µM; in the assay with MALME-3M melanoma, 1.92 µM; in the assay on EKVX NSCLC it was 23.3 µM; with KM12 colon, 17.2 µM; with BT-549 breast, 11 µM; in the assay with COLO 205 colon, 17.8 µM. Further, the GI50 in the assay with HOP-92 NSCLC was 17.6 µM; in the assay on UACC-62 melanoma, 12.5 µM; in the assay with HCT-15 colon, 16 µM. Besides, the TGI with SW-620 colon is 29.3 µM; in the assay with MALME-3M melanoma, 4.75 µM; in the assay with EKVX NSCLC, 50.8 µM; with KM12 colon, 32.6 µM; in the assay with BT-549 breast, 24.5 µM; in the assay on COLO 205 colon it was 39.1 µM. Also, the figures for the total growth inhibition concentration (TGI) in the assay on HOP-92 NSCLC, in the assay on UACC-62 melanoma and in the assay on HCT-15 colon were 32.1 µM, 25.2 µM and 31.9 µM, respectively.

Turning to `Nc1ncc(-c2cnn(CCO)c2)c2scc(-c3ccc(NC(=O)Nc4cccc(F)c4)cc3)c12`, the GI50 was 0.179 µM with SW-620 colon; 0.132 µM in the assay on MALME-3M melanoma; less than 0.0226 µM with MOLT-4 leukemia; 0.0103 µM with KM12 colon; 0.618 µM in the assay with BT-549 breast; less than 0.01 µM in the assay with COLO 205 colon. The concentration for 50% growth inhibition (GI50) with HOP-92 NSCLC was 0.227 µM; in the assay on UACC-62 melanoma it was 0.37 µM; in the assay on HCT-15 colon, 0.371 µM. Besides, the TGI was 3.74 µM in the assay on SW-620 colon; 1.38 µM in the assay with MALME-3M melanoma; 2.34 µM in the assay with MOLT-4 leukemia; 1.19 µM with KM12 colon; 3.76 µM in the assay with BT-549 breast; less than 0.0307 µM with COLO 205 colon. The TGI with HOP-92 NSCLC stood at 0.733 µM; with UACC-62 melanoma, 1.78 µM; in the assay on HCT-15 colon, 14.3 µM.

`O=C(O)CC1OCC=C2CN3CCC45c6ccccc6NC4C1C2CC35` (centres undefined): the TGI in the assay with SW-620 colon, with MOLT-4 leukemia, in the assay with EKVX NSCLC, in the assay on KM12 colon, in the assay on BT-549 breast and in the assay on COLO 205 colon was more than 100 µM each time. The total growth inhibition concentration (TGI) with HOP-92 NSCLC, in the assay on UACC-62 melanoma and with HCT-15 colon was more than 100 µM throughout.

For `CCc1[nH]c(=O)nc(N)c1-c1ccc(N2CCCCC2)c([N+](=O)[O-])c1`, the total growth inhibition concentration (TGI) in the assay on SW-620 colon, with MOLT-4 leukemia, with EKVX NSCLC, with KM12 colon, with BT-549 breast and in the assay with COLO 205 colon was more than 100 µM throughout. Moreover, the TGI in the assay with HOP-92 NSCLC, in the assay with UACC-62 melanoma and with HCT-15 colon was more than 100 µM in each case.

Consider `CC12CCCC(O)C1CCC1=CC3(CCC12)SCCS3` (centres undefined), for which the TGI with SW-620 colon, in the assay on MALME-3M melanoma, in the assay with KM12 colon, with BT-549 breast, in the assay with COLO 205 colon and in the assay on HOP-92 NSCLC was more than 10 µM throughout. The TGI with UACC-62 melanoma and in the assay with HCT-15 colon was more than 10 µM each time.

For the compound `CCOC(=O)Sc1ncnc2nc[nH]c12`, the GI50 in the assay with SW-620 colon was 3.89 µM; with MALME-3M melanoma, 27.1 µM; in the assay on MOLT-4 leukemia, 1.58 µM; with EKVX NSCLC, 38.5 µM; in the assay on KM12 colon, 4.03 µM; with BT-549 breast, 9.92 µM. The GI50 in the assay with COLO 205 colon was 3.92 µM; in the assay with UACC-62 melanoma, 1.37 µM; in the assay with HCT-15 colon, 2.86 µM. Also, the TGI is more than 100 µM in the assay with SW-620 colon; more than 100 µM in the assay with MALME-3M melanoma; 6.57 µM with MOLT-4 leukemia; more than 100 µM with EKVX NSCLC; more than 100 µM with KM12 colon; more than 100 µM with BT-549 breast. Besides, the TGI with COLO 205 colon was 46.4 µM; in the assay on UACC-62 melanoma it was more than 100 µM; in the assay on HCT-15 colon, more than 100 µM.

In the case of `O=C(N/N=C/c1cccc(O)c1O)c1ccccc1`, the GI50 in the assay with SW-620 colon is 0.635 µM; in the assay with MALME-3M melanoma, 1.35 µM; in the assay on MOLT-4 leukemia, 0.362 µM; in the assay on KM12 colon it was 0.769 µM; with BT-549 breast, 1.84 µM; in the assay with COLO 205 colon, 1.97 µM. In addition, the GI50 was 0.329 µM in the assay on HOP-92 NSCLC, 0.902 µM in the assay with UACC-62 melanoma and 0.466 µM in the assay with HCT-15 colon. For the same compound, the TGI in the assay on SW-620 colon is more than 100 µM; with MALME-3M melanoma it was 35.8 µM; with MOLT-4 leukemia, more than 39.2 µM; in the assay with KM12 colon it was more than 100 µM; with BT-549 breast, more than 73 µM; in the assay with COLO 205 colon it was more than 55.7 µM. Further, the TGI in the assay on HOP-92 NSCLC is 8.38 µM; with UACC-62 melanoma it was 5.32 µM; in the assay with HCT-15 colon, more than 100 µM.

Consider `COc1ccc(OC)c(/C=C/C(=O)N/N=C/c2ccc(Cl)cc2)c1`, for which the GI50 in the assay with SW-620 colon was 0.0577 µM; in the assay on MOLT-4 leukemia it was 0.213 µM; with EKVX NSCLC, 0.704 µM; in the assay on KM12 colon it was 0.0466 µM; with BT-549 breast, 1.17 µM; in the assay on COLO 205 colon, 0.0935 µM. The GI50 is 9.27 µM with HOP-92 NSCLC, 0.058 µM with UACC-62 melanoma and 0.0736 µM with HCT-15 colon. Also, the TGI is more than 100 µM in the assay on SW-620 colon; more than 100 µM with MOLT-4 leukemia; more than 100 µM in the assay with EKVX NSCLC; more than 29.1 µM with KM12 colon; more than 100 µM with BT-549 breast; 0.599 µM in the assay with COLO 205 colon. Besides, the TGI with HOP-92 NSCLC was 75.2 µM; in the assay on UACC-62 melanoma, more than 100 µM; in the assay on HCT-15 colon it was more than 100 µM.
